Experimental data published in ChEMBL document CHEMBL1828590 (J Med Chem, 2011).

Key:
COLO 205 = assay: Antiproliferative activity against human COLO205 cells after 96 hrs by celltiter 96 assay; format: functional, cell-based; details: COLO 205, 96 h
A2780 = assay: Antiproliferative activity against human A2780 cells after 96 hrs by celltiter 96 assay; format: functional, cell-based; details: A2780, 96 h
HCT-116 [1] = assay: Antiproliferative activity against human HCT116 cells after 96 hrs by celltiter 96 assay; format: functional, cell-based; details: HCT-116, 96 h
PC-3 = assay: Antiproliferative activity against human PC3 cells after 96 hrs by celltiter 96 assay; format: functional, cell-based; details: PC-3, 96 h
Histone deacetylase 1 [2] = biological target: T1, Histone deacetylase 1 (Homo sapiens, UniProt Q13547)
Histone deacetylase 3 = Histone deacetylase 3 (Homo sapiens, UniProt O15379)
Histone deacetylase 4 = Histone deacetylase 4 (Homo sapiens, UniProt P56524)
Histone deacetylase 5 = Histone deacetylase 5 (Homo sapiens, UniProt Q9UQL6)
[3] = biological target: T2, Protein deacetylase HDAC6 (Homo sapiens, UniProt Q9UBN7)
T2 sequence (Q9UBN7 whole entry): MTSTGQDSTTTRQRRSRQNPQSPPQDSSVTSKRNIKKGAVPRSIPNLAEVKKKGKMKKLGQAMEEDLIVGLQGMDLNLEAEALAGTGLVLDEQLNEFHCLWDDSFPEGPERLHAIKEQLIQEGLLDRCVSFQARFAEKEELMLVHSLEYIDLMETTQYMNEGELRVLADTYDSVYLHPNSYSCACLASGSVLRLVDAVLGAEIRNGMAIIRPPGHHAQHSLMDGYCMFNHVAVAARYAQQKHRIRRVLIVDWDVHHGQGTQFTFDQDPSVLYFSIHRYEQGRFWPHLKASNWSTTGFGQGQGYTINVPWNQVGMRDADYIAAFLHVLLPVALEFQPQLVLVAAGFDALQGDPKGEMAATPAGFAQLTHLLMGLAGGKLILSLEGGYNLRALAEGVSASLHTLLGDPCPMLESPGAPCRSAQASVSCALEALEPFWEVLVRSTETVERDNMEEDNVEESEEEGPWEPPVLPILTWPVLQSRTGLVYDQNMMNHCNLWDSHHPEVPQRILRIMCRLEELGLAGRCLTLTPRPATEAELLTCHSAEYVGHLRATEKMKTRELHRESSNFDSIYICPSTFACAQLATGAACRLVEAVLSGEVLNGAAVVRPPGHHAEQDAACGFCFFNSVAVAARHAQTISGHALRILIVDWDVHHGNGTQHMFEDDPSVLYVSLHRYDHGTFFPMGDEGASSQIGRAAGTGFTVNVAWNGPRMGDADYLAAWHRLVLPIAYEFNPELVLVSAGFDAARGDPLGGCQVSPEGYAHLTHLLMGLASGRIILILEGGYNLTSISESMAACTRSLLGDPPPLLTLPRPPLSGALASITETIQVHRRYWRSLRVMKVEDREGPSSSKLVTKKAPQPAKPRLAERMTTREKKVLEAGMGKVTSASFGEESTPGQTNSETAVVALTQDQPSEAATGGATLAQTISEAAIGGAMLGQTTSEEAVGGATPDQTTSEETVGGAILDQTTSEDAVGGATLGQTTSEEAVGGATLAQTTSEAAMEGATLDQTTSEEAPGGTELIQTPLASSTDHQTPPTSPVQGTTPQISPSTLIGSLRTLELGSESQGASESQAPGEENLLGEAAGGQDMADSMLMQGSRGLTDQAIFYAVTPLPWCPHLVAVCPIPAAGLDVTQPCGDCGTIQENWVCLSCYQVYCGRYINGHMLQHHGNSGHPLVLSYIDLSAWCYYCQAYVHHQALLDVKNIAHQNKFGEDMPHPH

Histone deacetylase 8 = biological target: T3, Histone deacetylase 8 (Homo sapiens, UniProt Q9BY41)
T3 sequence (Q9BY41 whole entry): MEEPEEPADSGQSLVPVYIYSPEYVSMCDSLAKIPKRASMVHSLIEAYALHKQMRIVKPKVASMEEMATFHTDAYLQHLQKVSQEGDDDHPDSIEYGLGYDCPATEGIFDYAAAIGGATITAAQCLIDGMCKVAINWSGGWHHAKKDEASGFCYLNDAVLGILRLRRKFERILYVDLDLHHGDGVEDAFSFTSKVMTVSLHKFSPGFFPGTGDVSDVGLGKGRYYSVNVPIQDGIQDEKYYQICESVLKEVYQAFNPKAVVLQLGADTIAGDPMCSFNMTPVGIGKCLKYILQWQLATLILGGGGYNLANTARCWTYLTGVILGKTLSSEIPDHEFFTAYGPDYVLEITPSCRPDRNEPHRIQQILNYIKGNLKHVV

Histone deacetylase 9 = Histone deacetylase 9 (Homo sapiens, UniProt Q9UKV0)
[4] = biological target: T4, Polyamine deacetylase HDAC10 (Homo sapiens, UniProt Q969S8)
T4 sequence (Q969S8 whole entry): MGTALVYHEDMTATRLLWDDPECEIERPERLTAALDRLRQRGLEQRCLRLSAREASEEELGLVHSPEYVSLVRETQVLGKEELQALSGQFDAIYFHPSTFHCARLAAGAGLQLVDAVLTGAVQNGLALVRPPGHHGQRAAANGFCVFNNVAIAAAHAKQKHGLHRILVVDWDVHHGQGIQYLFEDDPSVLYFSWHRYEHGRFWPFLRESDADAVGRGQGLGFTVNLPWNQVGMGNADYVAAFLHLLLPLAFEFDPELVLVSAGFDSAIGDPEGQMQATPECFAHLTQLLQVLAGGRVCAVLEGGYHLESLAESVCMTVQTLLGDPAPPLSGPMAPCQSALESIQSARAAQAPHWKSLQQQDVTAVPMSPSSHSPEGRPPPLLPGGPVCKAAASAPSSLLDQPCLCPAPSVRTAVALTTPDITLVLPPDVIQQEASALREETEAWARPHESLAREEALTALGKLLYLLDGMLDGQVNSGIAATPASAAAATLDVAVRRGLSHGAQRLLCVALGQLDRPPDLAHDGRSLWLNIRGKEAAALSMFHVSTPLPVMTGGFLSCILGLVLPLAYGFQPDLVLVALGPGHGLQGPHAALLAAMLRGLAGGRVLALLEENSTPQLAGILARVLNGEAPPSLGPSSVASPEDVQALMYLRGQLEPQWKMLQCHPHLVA

Histone deacetylase […] = biological target: T5, Histone deacetylase […] (Homo sapiens, UniProt Q96DB2)
T5 sequence (Q96DB2 whole entry): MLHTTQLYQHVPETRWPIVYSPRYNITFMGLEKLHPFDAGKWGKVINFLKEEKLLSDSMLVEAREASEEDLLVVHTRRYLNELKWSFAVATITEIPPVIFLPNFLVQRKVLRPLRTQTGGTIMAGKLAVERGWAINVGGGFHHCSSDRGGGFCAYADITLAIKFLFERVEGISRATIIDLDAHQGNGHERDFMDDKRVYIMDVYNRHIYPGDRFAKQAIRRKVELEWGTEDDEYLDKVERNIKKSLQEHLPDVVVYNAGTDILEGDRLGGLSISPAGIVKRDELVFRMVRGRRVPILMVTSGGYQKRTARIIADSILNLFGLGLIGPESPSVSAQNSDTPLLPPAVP

[5] = Oral bioavailability in Wistar rat at 10 mg/kg; format: ADME, organism-based; details: in vivo
[6] = Toxicity in po dosed athymic nu/nu Harlan mouse with xenografted human HCT116 cells assessed as maximum tolerated administered qd for 21 days; format: organism-based, HCT-116; details: in vivo
Histone deacetylase 1 [7] = biological target: T1, Histone deacetylase 1; remark: listed apart in the source
Histone deacetylase 2 = Histone deacetylase 2 (Homo sapiens, UniProt Q92769)
[8] = Half life in human liver microsomes; format: ADME, Microsome
Liver = assay: (§1) Half life in mouse liver microsomes; format: ADME, Microsome; details: microsomes
[9] = as §1; format: ADME, Microsome; details: liver microsomes
[10] = Half life in rat liver microsomes; format: ADME, Microsome
[11] = Half life in dog liver microsomes; format: ADME, Canis lupus familiaris, Microsome
[12] = Kinetic solubility of the compound at pH 7 with […] DMSO; format: physicochemical; details: buffer, read-out: Kinetic_solubility
[13] = Apparent permeability from apical to basolateral side of human Caco2 cells; format: ADME, cell-based; details: Caco-2
[14] = Apparent permeability from basolateral to apical side of human Caco2 cells; format: ADME, cell-based; details: Caco-2
Mus musculus [15] = assay: Toxicity in athymic nu/nu Harlan mouse xenografted with human HCT116 cells assessed as mouse survival at 50 mg/kg, po QD for 21 days measured on day 22; format: organism-based, HCT-116; design: dose 50 mg/kg, route oral; details: in vivo, 504 h
Mus musculus [16] = assay: Toxicity in athymic nu/nu Harlan mouse xenografted with human HCT116 cells assessed as mouse survival at 100 mg/kg, po QD for 21 days measured on day 22; format: organism-based, HCT-116; design: dose 100 mg/kg, route oral; details: in vivo, 504 h
Mus musculus [17] = assay: Toxicity in athymic nu/nu Harlan mouse xenografted with human HCT116 cells assessed as mouse survival at 200 mg/kg, po QD for 21 days measured on day 22; format: organism-based, HCT-116; design: dose 200 mg/kg, route oral; details: in vivo, 504 h
HCT-116 [18] = assay: Antitumor activity against human HCT116 cells xenografted in athymic nu/nu Harlan mouse assessed as tumor growth inhibition at 50 mg/kg, po qd for 21 days measured on day 22; format: functional; details: read-out: TGI
HCT-116 [19] = assay: Antitumor activity against human HCT116 cells xenografted in athymic nu/nu Harlan mouse assessed as tumor growth inhibition at 100 mg/kg, po qd for 21 days measured on day 22; format: functional; details: read-out: TGI
HCT-116 [20] = assay: Antitumor activity against human HCT116 cells xenografted in athymic nu/nu Harlan mouse assessed as tumor growth inhibition at 200 mg/kg, po qd for 21 days measured on day 22; format: functional; details: read-out: TGI
[21] = 1-Octanol-sodium phosphate buffer distribution coefficient, log D of the compound at pH 7.4; format: physicochemical; details: 1-octanol/sodium phosphate buffer, read-out: logD

Chain of Histone deacetylase 5 (Q9UQL6 whole entry): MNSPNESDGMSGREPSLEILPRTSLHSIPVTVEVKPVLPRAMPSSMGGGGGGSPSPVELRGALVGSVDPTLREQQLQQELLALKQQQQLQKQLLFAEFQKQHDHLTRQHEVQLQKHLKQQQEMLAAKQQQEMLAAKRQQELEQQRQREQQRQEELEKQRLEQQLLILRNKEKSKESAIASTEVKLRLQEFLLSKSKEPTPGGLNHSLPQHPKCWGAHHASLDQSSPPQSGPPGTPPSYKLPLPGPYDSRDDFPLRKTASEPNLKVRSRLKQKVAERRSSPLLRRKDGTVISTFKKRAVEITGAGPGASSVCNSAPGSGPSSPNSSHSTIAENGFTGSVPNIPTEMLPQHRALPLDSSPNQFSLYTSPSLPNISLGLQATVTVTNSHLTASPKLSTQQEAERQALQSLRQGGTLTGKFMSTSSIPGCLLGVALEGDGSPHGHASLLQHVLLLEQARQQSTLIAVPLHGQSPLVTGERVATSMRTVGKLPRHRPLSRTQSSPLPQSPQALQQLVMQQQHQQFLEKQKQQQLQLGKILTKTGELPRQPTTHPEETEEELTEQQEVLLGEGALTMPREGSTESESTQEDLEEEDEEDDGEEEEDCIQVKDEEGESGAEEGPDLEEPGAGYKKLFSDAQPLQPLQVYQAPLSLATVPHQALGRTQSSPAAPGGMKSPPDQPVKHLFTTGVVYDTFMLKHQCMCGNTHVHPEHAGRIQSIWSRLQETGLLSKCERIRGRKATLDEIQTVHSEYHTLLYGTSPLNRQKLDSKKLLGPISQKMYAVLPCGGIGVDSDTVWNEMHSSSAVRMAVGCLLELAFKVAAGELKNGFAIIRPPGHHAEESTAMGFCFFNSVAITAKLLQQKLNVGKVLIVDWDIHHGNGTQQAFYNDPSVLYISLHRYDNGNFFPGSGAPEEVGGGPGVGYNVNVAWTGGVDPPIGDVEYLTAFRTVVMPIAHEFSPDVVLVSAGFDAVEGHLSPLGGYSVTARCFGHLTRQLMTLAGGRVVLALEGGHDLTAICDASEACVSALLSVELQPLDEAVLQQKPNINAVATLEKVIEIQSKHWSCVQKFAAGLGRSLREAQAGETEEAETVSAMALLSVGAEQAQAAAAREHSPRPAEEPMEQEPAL
Chain of Histone deacetylase 2 (Q92769 whole entry): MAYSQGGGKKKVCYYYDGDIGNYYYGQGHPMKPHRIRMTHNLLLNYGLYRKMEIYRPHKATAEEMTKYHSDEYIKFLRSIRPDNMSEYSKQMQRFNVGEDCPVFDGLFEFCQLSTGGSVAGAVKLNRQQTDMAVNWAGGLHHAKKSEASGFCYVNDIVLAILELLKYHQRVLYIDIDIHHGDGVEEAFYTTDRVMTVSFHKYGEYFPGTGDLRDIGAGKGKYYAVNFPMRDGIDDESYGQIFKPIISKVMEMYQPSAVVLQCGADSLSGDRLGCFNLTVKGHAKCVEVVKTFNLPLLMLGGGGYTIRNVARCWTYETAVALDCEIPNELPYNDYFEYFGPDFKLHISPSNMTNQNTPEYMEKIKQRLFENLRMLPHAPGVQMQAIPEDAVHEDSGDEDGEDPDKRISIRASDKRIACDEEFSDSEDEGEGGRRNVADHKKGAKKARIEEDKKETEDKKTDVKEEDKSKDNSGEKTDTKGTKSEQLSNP
Chain of Histone deacetylase 4 (P56524 whole entry): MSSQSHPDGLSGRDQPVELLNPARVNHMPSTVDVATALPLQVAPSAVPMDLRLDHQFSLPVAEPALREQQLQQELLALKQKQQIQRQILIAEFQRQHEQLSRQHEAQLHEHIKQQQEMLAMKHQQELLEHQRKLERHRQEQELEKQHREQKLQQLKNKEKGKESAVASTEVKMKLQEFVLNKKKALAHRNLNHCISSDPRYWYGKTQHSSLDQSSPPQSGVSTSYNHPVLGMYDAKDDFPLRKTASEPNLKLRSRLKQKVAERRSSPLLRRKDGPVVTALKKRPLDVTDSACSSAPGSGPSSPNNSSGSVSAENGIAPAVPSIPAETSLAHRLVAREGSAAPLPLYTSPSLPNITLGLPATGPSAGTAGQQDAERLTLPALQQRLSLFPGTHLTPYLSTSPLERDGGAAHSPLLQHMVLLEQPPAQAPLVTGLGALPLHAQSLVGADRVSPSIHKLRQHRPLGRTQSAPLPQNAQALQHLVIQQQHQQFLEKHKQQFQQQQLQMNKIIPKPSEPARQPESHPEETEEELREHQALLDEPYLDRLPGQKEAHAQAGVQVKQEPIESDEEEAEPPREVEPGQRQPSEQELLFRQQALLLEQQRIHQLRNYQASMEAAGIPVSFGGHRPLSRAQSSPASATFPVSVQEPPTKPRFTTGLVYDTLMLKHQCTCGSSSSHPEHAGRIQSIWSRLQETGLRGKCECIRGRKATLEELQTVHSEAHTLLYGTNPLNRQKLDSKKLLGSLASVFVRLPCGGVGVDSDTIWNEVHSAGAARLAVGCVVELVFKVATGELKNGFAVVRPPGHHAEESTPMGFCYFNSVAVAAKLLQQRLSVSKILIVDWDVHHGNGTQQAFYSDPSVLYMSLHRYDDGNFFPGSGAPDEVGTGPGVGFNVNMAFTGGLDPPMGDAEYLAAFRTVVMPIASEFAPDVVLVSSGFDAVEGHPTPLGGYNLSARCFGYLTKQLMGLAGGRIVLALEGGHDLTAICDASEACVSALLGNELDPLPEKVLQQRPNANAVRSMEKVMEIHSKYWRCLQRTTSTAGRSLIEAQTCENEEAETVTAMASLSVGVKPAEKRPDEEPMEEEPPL
T1 sequence (Q13547 whole entry): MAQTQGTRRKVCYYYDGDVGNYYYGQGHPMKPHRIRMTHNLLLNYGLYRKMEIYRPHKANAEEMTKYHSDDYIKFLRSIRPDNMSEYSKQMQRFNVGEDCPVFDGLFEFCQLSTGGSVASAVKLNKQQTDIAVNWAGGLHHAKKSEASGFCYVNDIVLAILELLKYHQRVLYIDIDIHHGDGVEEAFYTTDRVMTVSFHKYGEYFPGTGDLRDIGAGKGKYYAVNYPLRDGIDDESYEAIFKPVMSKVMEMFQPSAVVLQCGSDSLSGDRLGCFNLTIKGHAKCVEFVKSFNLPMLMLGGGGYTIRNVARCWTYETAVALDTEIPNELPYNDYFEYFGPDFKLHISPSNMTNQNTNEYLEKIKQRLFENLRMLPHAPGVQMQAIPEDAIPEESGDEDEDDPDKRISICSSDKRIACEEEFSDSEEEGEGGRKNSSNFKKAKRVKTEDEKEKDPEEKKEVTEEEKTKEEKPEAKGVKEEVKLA
Chain of Histone deacetylase 3 (O15379 whole entry): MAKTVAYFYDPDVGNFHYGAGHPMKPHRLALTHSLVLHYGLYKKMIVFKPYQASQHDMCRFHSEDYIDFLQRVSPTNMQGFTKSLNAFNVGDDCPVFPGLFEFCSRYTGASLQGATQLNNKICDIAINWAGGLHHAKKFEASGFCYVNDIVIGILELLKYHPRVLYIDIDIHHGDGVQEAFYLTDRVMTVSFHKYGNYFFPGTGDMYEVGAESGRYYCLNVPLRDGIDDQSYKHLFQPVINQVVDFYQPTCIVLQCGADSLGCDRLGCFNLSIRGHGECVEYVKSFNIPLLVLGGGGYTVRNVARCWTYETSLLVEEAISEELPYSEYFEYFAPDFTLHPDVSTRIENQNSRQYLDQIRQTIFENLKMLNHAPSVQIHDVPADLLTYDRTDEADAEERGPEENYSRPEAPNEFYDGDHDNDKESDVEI
Chain of Histone deacetylase 9 (Q9UKV0 whole entry): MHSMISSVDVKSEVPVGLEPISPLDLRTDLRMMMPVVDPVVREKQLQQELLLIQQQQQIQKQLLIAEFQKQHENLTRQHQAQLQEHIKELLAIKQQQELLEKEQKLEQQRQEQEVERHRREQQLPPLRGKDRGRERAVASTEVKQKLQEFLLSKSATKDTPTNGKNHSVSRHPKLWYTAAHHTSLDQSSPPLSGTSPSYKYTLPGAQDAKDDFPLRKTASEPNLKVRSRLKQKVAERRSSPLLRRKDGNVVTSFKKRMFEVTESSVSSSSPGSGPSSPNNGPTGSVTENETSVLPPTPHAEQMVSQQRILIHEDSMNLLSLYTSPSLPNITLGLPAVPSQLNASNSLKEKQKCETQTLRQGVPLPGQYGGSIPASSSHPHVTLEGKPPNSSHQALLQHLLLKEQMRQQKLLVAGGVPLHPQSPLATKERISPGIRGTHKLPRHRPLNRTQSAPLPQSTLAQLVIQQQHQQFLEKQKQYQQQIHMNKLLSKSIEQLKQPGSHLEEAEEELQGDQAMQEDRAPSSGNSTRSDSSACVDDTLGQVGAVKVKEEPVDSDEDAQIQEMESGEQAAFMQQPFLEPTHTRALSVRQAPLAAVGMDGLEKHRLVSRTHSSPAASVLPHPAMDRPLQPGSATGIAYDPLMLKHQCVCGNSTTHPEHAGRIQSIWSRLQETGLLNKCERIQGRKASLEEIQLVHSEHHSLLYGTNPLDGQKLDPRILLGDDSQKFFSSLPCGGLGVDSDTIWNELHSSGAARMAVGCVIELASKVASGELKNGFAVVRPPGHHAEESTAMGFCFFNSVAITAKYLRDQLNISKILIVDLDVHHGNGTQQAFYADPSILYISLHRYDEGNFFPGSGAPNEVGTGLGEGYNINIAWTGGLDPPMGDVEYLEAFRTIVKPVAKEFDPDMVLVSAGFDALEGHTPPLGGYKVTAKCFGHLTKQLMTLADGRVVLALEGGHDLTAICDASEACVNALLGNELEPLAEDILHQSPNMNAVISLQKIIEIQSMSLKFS

Row | half-life [8] [min] | SMILES | IC50 (COLO 205) [nM] | IC50 (A2780) [nM] | IC50 (HCT-116 [1]) [nM] | IC50 (PC-3) [nM] | Ki (Histone deacetylase 1 [2]) [nM] | Ki (Histone deacetylase 3) [nM] | Ki (Histone deacetylase 4) [nM] | Ki (Histone deacetylase 5) [nM] | Ki [3] [nM] | Ki (Histone deacetylase 8) [nM] | Ki (Histone deacetylase 9) [nM] | Ki [4] [nM] | Ki (Histone deacetylase […]) [nM] | bioavailability [5] [%] | MTD at 504 h [6] [mg/kg] | IC50 (Histone deacetylase 1 [7]) [nM] | Ki (Histone deacetylase 2) [nM] | half-life [9] [min] | half-life [10] [min] | further results
1 | – | CCCCCCc1nc2cc(/C=C/C(=O)NO)ccc2n1CCNCC | 190 | 240 | 230 | 210 | 11 | 13 | 6.2 | 6.8 | 282 | 54 | 14 | 28 | 13 | 1.4 | 200 | 20 | 18 | – | – | –
2 | 60 | CN(C)CC(C)(C)Cn1c(CCc2ccccc2)nc2cc(/C=C/C(=O)NO)ccc21 | 110 | – | – | – | 15 | 11 | 10 | 16 | 23 | – | 21 | 23 | 16 | – | – | 42 | 39 | – | – | t1/2 (Liver): 17 min
3 | – | CCCCc1nc2cc(/C=C/C(=O)NO)ccc2n1CCNC(C)C | 470 | 380 | 340 | 230 | 26 | 27 | 11 | 11 | 225 | 78 | 30 | 34 | 18 | 9 | 200 | 42 | 33 | – | – | –
4 | 60 | Cl.O=C(/C=C/c1ccc2c(c1)nc(CCc1ccccc1)n2CCN1CCCC1)NO | – | – | – | – | – | – | – | – | – | – | – | – | – | – | – | – | – | 5 | 4.3 | half-life [11]: 18 min; solubility kinetic [12]: > 200 µM; logD [21]: 2.1; Papp A→B [13]: 3.01 ×10⁻⁶ cm/s; Papp B→A [14]: 27.7 ×10⁻⁶ cm/s

Row | SMILES | half-life [8] [min] | IC50 (COLO 205) [nM] | IC50 (A2780) [nM] | IC50 (HCT-116 [1]) [nM] | IC50 (PC-3) [nM] | Ki (Histone deacetylase 1 [2]) [nM] | Ki (Histone deacetylase 3) [nM] | Ki (Histone deacetylase 4) [nM] | Ki (Histone deacetylase 5) [nM] | Ki [3] [nM] | Ki (Histone deacetylase 8) [nM] | Ki (Histone deacetylase 9) [nM] | Ki [4] [nM] | Ki (Histone deacetylase […]) [nM] | bioavailability [5] [%] | MTD at 504 h [6] [mg/kg] | IC50 (Histone deacetylase 1 [7]) [nM] | Ki (Histone deacetylase 2) [nM] | half-life [9] [min] | half-life [10] [min] | further results
5 | CCCCCCc1nc2cc(/C=C/C(=O)NO)ccc2n1CCNCC.Cl.Cl | 51 | – | – | – | – | – | – | – | – | – | – | – | – | – | – | – | – | – | 1.6 | 1.1 | half-life [11]: 48 min; solubility kinetic [12]: > 200 µM; Papp A→B [13]: 0.97 ×10⁻⁶ cm/s; Papp B→A [14]: 10.5 ×10⁻⁶ cm/s; Activity (Mus musculus [15]): Non-toxic; Activity (Mus musculus [16]): Non-toxic; Activity (Mus musculus [17]): Non-toxic; inhibition in vivo at 50 mg/kg (HCT-116 [18]): -9%; inhibition in vivo at 100 mg/kg (HCT-116 [19]): -7%; inhibition in vivo at 200 mg/kg (HCT-116 [20]): 41%
